Laboratory results published in article PMC8745330, “Aromatic Sulfonamides including a Sulfonic Acid Tail: New Membrane Impermeant Carbonic Anhydrase Inhibitors for Targeting Selectively the Cancer-Associated Isoforms” (International Journal of Molecular Sciences, 2021).
Counter-ions that a name gives are not always drawn.

Columns and labels:
hCA I = molecular target: T1, hCA I (Homo sapiens, UniProt P00915); test: stopped flow CO2 hydrase assay, CA I; type: biochemical; settings: mean from 3 different assays, errors ±5–10%
T1 construct: made in house
T1 sequence (P00915 whole entry): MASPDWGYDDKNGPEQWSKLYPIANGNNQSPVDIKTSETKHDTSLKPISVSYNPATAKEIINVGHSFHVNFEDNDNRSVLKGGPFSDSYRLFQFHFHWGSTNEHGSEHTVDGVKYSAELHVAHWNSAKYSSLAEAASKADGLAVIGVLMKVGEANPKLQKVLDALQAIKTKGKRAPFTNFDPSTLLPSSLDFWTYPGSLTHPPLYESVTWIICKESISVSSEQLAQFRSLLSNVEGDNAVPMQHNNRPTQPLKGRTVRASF
Method: (§1) An Applied Photophysics stopped-flow instrument was used for assaying the CA catalyzed CO2 hydration activity. Phenol red (at a concentration of 0.2 mM) was used as an indicator, working at the absorbance maximum of 557 nm, with 20 mM HEPES (pH 7.5) as buffer, and 20 mM Na2SO4 (for maintaining constant the ionic strength), following the initial rates of the CA-catalyzed CO2 hydration reaction for a period of 10–100 s. The CO2 concentrations ranged from 1.7 to 17 mM for the determination of the kinetic parameters and inhibition constants. For each inhibitor, at least six traces of the initial 5–10% of the reaction were used for determining the initial velocity. The uncatalyzed rates were determined in the same manner and subtracted from the total observed rates. Stock solutions of inhibitor (0.1 mM) were prepared in distilled–deionized water, and dilutions up to 0.01 nM were done thereafter with the assay buffer. Inhibitor and enzyme solutions were preincubated together for 45 min at room temperature prior to assay in order to allow for the formation of the E–I complex. The inhibition constants were obtained by non-linear least-squares methods using PRISM 3 and the Cheng–Prusoff equation, as reported earlier, representing the mean from at least three different determinations. […] All CA isoforms were recombinant ones obtained in-house, as reported earlier.

hCA II = molecular target: T2, hCA II (Homo sapiens, UniProt P00918); test: stopped flow CO2 hydrase assay, CA II; type: biochemical; settings: mean from 3 different assays, errors ±5–10%
T2 construct: made in house
Method: as §1

hCA IX = molecular target: T3, hCA IX (Homo sapiens, UniProt Q16790); test: stopped flow CO2 hydrase assay, CA IX; type: biochemical; settings: for Selectivity index (SI) CA I/CA IX / Selectivity index (SI) CA II/CA IX: ratio between KI values; for Ki: stopped flow CO2 hydrase assay, mean from 3 different assays, errors ±5–10%
T3 construct: made in house
Method: as §1

hCA XII = molecular target: T4, hCA XII (Homo sapiens, UniProt O43570); test: stopped flow CO2 hydrase assay, CA XII; type: biochemical; settings: for Selectivity index (SI) CA I/CA XII / Selectivity index (SI) CA II/CA XII: ratio between KI values; for Ki: stopped flow CO2 hydrase assay, mean from 3 different assays, errors ±5–10%
T4 construct: made in house
T4 sequence (O43570 25-354): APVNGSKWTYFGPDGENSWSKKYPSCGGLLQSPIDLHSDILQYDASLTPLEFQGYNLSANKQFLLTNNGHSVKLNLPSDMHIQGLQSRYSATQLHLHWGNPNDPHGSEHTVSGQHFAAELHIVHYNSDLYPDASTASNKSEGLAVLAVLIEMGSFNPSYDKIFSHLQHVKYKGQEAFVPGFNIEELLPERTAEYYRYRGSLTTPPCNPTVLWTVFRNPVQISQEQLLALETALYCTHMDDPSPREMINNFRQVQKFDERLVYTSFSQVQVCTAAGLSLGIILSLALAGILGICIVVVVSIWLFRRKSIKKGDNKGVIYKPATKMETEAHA
Method: as §1

hCA IV = molecular target: T5, hCA IV (Homo sapiens, UniProt P22748); test: stopped flow CO2 hydrase assay, CA IV; type: biochemical; settings: mean from 3 different assays, errors ±5–10%
T5 construct: made in house
T5 sequence (P22748 19-312): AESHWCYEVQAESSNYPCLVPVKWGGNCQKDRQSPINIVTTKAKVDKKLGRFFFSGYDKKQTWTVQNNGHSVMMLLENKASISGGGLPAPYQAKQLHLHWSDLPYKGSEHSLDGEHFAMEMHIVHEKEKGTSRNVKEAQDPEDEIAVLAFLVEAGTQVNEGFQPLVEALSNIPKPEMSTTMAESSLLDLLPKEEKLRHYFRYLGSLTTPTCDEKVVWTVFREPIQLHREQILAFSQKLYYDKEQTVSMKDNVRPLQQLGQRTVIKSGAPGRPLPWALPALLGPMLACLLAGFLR
Method: as §1

Molecule | melting point [°C] | Ki (hCA I) [nM] | Ki (hCA II) [nM] | Selectivity index (SI) CA I/CA IX (hCA IX) | Selectivity index (SI) CA II/CA IX (hCA IX) | Ki (hCA IX) [nM] | Selectivity index (SI) CA I/CA XII (hCA XII) | Selectivity index (SI) CA II/CA XII (hCA XII) | Ki (hCA XII) [nM] | Ki (hCA IV) [nM]
CCC(=O)Nc1cc(S(N)(=O)=O)ccc1OCc1cn(CCCCS(=O)(=O)O)nn1 (as salt: sodium) [Compound 51] | > 300 |  |  |  |  |  |  |  |  | 
Sodium 3-(4-((4-sulfamoylbenzamido)methyl)-1H-1,2,3-triazol-1-yl)butane-1-sulfonate [Compound 44] |  | 168 | 22.5 | 3.3 | 0.44 | 50.7 | 5.2 | 0.70 | 32.2 | 651
NS(=O)(=O)c1ccc(-c2cn(CCCS(=O)(=O)[O-])nn2)cc1.[Na+] [Compound 30, Sodium 3-(4-(4-sulfamoylphenyl)-1H-1,2,3-triazol-1-yl)propane-1-sulfonate] | > 300 | 83.5 | 3.2 | 2.3 | 0.09 | 35.9 | 12 | 0.48 | 6.7 | 429
Sodium 3-(4-((3-(4-sulfamoylphenyl)ureido)methyl)-1H-1,2,3-triazol-1-yl)butane-1-sulfonate [Compound 45] |  | 496 | 41.1 | 1.3 | 0.11 | 372 | 14 | 1.2 | 33.6 | 150
NS(=O)(=O)c1ccc(CCNC(=O)NCc2cn(CCCS(=O)(=O)[O-])nn2)cc1.[Na+] [Compound 36, Sodium 3-(4-((3-(4-sulfamoylphenethyl)ureido)methyl)-1H-1,2,3-triazol-1-yl)propane-1-sulfonate] | 217 to 219 | 76.8 | 43.1 | 0.3 | 0.15 | 282 | 8.8 | 4.9 | 8.7 | 870
NS(=O)(=O)c1ccc(OCc2cn(CCCS(=O)(=O)[O-])nn2)cc1.[Na+] [Compound 31, Sodium 3-(4-((4-sulfamoylphenoxy)methyl)-1H-1,2,3-triazol-1-yl)propane-1-sulfonate] | 290 to 293 | 82.7 | 0.9 | 1.8 | 0.02 | 44.4 | 1.7 | 0.02 | 47.7 | 38.3
NS(=O)(=O)c1ccc(CNC(=O)NCc2cn(CCCS(=O)(=O)[O-])nn2)cc1.[Na+] [Compound 35, Sodium 3-(4-((3-(4-sulfamoylbenzyl)ureido)methyl)-1H-1,2,3-triazol-1-yl)propane-1-sulfonate] | 295 to 297 | 807 | 139 | 11 | 1.9 | 71.8 | 49 | 8.4 | 16.4 | 50.2
NS(=O)(=O)c1ccc(NCc2cn(CCCS(=O)(=O)[O-])nn2)cc1.[Na+] [Compound 32, Sodium 3-(4-(((4-sulfamoylphenyl)amino)methyl)-1H-1,2,3-triazol-1-yl)propane-1-sulfonate] | > 300 | 460 | 4.2 | 1.0 | 0.01 | 459 | 1.1 | 0.01 | 433 | 43.1
CCC(=O)Nc1cc(S(N)(=O)=O)ccc1OCc1cn(CCCCS(=O)(=O)O)nn1 [Compound 51] |  | 3650 | 39.9 |  |  | 236 |  |  | 7.3 | > 10000
CC(=O)Nc1cc(S(N)(=O)=O)ccc1OCc1cn(CCCCS(=O)(=O)O)nn1 [Compound 50] |  | 7690 | 263 |  | 3.2 | 82.5 |  | 6.5 | 40.6 | 3560
Sodium 3-(4-((4-(3-(4-sulfamoylphenyl)ureido)phenoxy)methyl)-1H-1,2,3-triazol-1-yl)butane-1-sulfonate [Compound 49] |  | 91.9 | 18.8 |  |  | 32.2 |  |  | 53.2 | 4540
